The values below come from ChEMBL document CHEMBL1201862, “PubChem BioAssay data set” (2004).

Some test systems named below: ACHN; CAKI-1; HCT-15; IGROV-1; LOX IMVI; MDA-MB-435; MDA-N; MOLT-4; NCI-H23; NCI-H522; NCI/ADR-RES; OVCAR-4; RXF 393; SK-MEL-28; SK-MEL-2; SK-MEL-5; T47D; U-251; CCRF-CEM; K562.
Common to all, as to assay: NCI-60 cell line screen, 48 h

Each structure is given as a SMILES string.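 Five compound concentrations were applied to cells in 96-well plates for 48 hours; endpoints were derived by simple linear interpolation of the resulting dose-response curve. Here, GI50 denotes the concentration required for 50% inhibition of growth.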 Activity calls are given as the source filed them. No stated cut-off is given here; in the data, active = GI50 up to about 1.1 µM and inactive = higher.

As for `COC(=O)CCCC(=O)O`, the GI50 in the assay with ACHN was > 100 µM (inactive); with CAKI-1, > 100 µM (inactive); in the assay with HCT-15, more than 100 µM; in the assay with IGROV-1, > 100 µM (inactive); in the assay on LOX IMVI, > 100 µM (inactive); in the assay on MDA-MB-435, > 100 µM (inactive). Moreover, the GI50 with MDA-N, with MOLT-4, with NCI-H23, in the assay on NCI-H522, with NCI/ADR-RES and in the assay on OVCAR-4 was > 100 µM (inactive) each time. Further, the GI50 in the assay on RXF 393, in the assay with SK-MEL-28, in the assay with SK-MEL-2, in the assay on SK-MEL-5, in the assay on T47D and with U-251 was > 100 µM (inactive) each time.
Take `O=c1[nH]nc(-c2ccccc2)c2[nH]c3c4ccccc4ccc3c12`: the GI50 with ACHN was 1.69 µM (inactive); in the assay with CCRF-CEM, 1.56 µM (inactive); in the assay on HCT-15, 0.643 µM; in the assay on IGROV-1, 4.24 µM (inactive); in the assay on K562 it was 0.279 µM (active); with MDA-MB-435, 0.193 µM (active). Besides, the GI50 is 0.199 µM (active) in the assay with MDA-N; 1.64 µM (inactive) in the assay on MOLT-4; 2.15 µM (inactive) in the assay with NCI-H23; 0.753 µM (active) in the assay with NCI-H522; 0.379 µM (active) in the assay on NCI/ADR-RES; 1.76 µM (inactive) in the assay with OVCAR-4. The GI50 in the assay on RXF 393 is 1.58 µM (inactive); in the assay with SK-MEL-2, 7.62 µM (inactive); with SK-MEL-5 it was 0.587 µM (active); in the assay on T47D, 5.4 µM (inactive); in the assay with U-251, 0.885 µM (active).
As for `COc1cc([C@@H]2c3cc4c(cc3[C@H](OC3OC5COC(c6ccco6)OC5C(O)C3O)C3COC(=O)[C@@H]32)OCO4)cc(OC)c1OC` (stereo partly drawn), the GI50 in the assay with ACHN is 4.6 µM (inactive); in the assay with CAKI-1, 5.35 µM (inactive); in the assay on HCT-15, 3.2 µM; with IGROV-1, 3.56 µM (inactive); in the assay with LOX IMVI, 4.06 µM (inactive); with MDA-MB-435, 3.59 µM (inactive). Also, the GI50 in the assay on MDA-N is 2.04 µM (inactive); with NCI-H23 it was 3.56 µM (inactive); in the assay with NCI-H522, 8.34 µM (inactive); with NCI/ADR-RES it was 9.93 µM (inactive); in the assay with OVCAR-4, 41.6 µM (inactive); with RXF 393 it was 2.82 µM (inactive). Further, the GI50 is 9.31 µM (inactive) in the assay on SK-MEL-2, 4.21 µM (inactive) in the assay on SK-MEL-5, 13.4 µM (inactive) in the assay on T47D and 3.18 µM (inactive) in the assay with U-251.
As to `O=[N+]([O-])c1cc(Cl)cnc1Br`, the GI50 was 2.09 µM (inactive) in the assay with ACHN; 1.86 µM (inactive) in the assay with CAKI-1; 4.32 µM (inactive) in the assay with CCRF-CEM; 2.25 µM with HCT-15; 2.22 µM (inactive) in the assay with IGROV-1; 2.64 µM (inactive) in the assay with K562. In addition, the GI50 in the assay on LOX IMVI was 1.22 µM (inactive); with MDA-MB-435 it was 2.23 µM (inactive); with MDA-N, 3.33 µM (inactive); in the assay with MOLT-4, 1.25 µM (inactive); with NCI-H23, 5.52 µM (inactive); in the assay on NCI/ADR-RES it was 2.14 µM (inactive). Besides, the GI50 in the assay on OVCAR-4 is 2.28 µM (inactive); in the assay on RXF 393, 1.52 µM (inactive); in the assay with SK-MEL-28, 3.33 µM (inactive); with SK-MEL-5 it was 2.4 µM (inactive); in the assay on T47D, 3.1 µM (inactive); in the assay on U-251, 2.16 µM (inactive).
Turning to `C[C@@H]1C(=O)CC2(O)[C@@]13C[C@@H](OC(=O)[C@@H]3O)[C@@H](C)[C@@]21COC1=O` (stereo partly drawn), the GI50 was > 100 µM (inactive) with ACHN; > 100 µM (inactive) in the assay with CCRF-CEM; more than 100 µM with HCT-15; > 100 µM (inactive) in the assay with IGROV-1; > 100 µM (inactive) in the assay on K562; > 100 µM (inactive) with LOX IMVI. Besides, the GI50 in the assay with MDA-MB-435, in the assay on MDA-N, in the assay with MOLT-4, in the assay on NCI-H23, with NCI-H522 and in the assay on NCI/ADR-RES was > 100 µM (inactive) in each case. Further, the GI50 in the assay with OVCAR-4, with RXF 393, with SK-MEL-28, in the assay on SK-MEL-2, in the assay on SK-MEL-5 and with T47D was > 100 µM (inactive) each time. Further, in the assay on U-251, the GI50 was > 100 µM (inactive).
Regarding `Cc1ccc(S(=O)(=O)N2CCNCCN(S(=O)(=O)c3ccc(C)cc3)CCNCC2)cc1`, the GI50 was 28.9 µM (inactive) with ACHN; 27.6 µM (inactive) in the assay with CAKI-1; 32.9 µM in the assay with HCT-15; 19.7 µM (inactive) in the assay with IGROV-1; 14.2 µM (inactive) with K562; 12.5 µM (inactive) in the assay with LOX IMVI. Further, the GI50 with MDA-MB-435 was 18.1 µM (inactive); with MDA-N it was 20.2 µM (inactive); in the assay with NCI-H23 it was 32.3 µM (inactive); with NCI-H522, 16.6 µM (inactive); in the assay with NCI/ADR-RES, 61.1 µM (inactive); in the assay on OVCAR-4, 32.2 µM (inactive). Further, the GI50 with RXF 393 was 2.65 µM (inactive); with SK-MEL-28, 18.5 µM (inactive); in the assay with SK-MEL-2 it was 19.8 µM (inactive); in the assay with SK-MEL-5, 16.3 µM (inactive); in the assay with T47D, 12.3 µM (inactive); in the assay on U-251, 20.2 µM (inactive).
Regarding `O=NN(CCCl)C(=O)NC1CCCCC1` [LOMUSTINE], the GI50 was 69.3 µM (inactive) with ACHN; 13 µM (inactive) in the assay with CCRF-CEM; 29.9 µM in the assay with HCT-15; 47 µM (inactive) with IGROV-1; 22 µM (inactive) in the assay on K562; 9.91 µM (inactive) in the assay with LOX IMVI. The GI50 in the assay with MDA-MB-435 was 3.36 µM (inactive); with MDA-N it was 18.7 µM (inactive); with MOLT-4, 18.4 µM (inactive); with NCI-H23 it was 68.5 µM (inactive); in the assay with NCI-H522 it was 24.4 µM (inactive); in the assay on NCI/ADR-RES, 51.3 µM (inactive). The GI50 in the assay with OVCAR-4 was 61.4 µM (inactive); in the assay on RXF 393, 35.3 µM (inactive); in the assay on SK-MEL-28 it was 58.7 µM (inactive); in the assay with SK-MEL-2, 74.3 µM (inactive); in the assay on SK-MEL-5, 54.7 µM (inactive); in the assay on T47D, 31.6 µM (inactive). For the same molecule, the GI50 in the assay with U-251 is 31.6 µM (inactive).
Take `OC(CN1CCCCC1)c1ccc(/C=C/c2ccc(Cl)cc2)cc1` (stereo not drawn): the GI50 with ACHN is > 100 µM (inactive); in the assay on CCRF-CEM it was 70.5 µM (inactive); with HCT-15 it was 25.2 µM; with IGROV-1, 26.2 µM (inactive); in the assay with K562, 37.3 µM (inactive); in the assay on MDA-MB-435 it was 54.3 µM (inactive). Besides, the GI50 in the assay with MDA-N is 56.9 µM (inactive); with MOLT-4, > 100 µM (inactive); with NCI-H23, > 100 µM (inactive); with NCI-H522, 21.3 µM (inactive); with NCI/ADR-RES it was > 100 µM (inactive); in the assay on OVCAR-4, 83.6 µM (inactive). Also, the GI50 with RXF 393 was > 100 µM (inactive); with SK-MEL-28, 22.3 µM (inactive); with SK-MEL-2, 27.2 µM (inactive); in the assay on SK-MEL-5 it was 22.3 µM (inactive); with T47D, > 100 µM (inactive); with U-251, > 100 µM (inactive).
For `COc1ccc2[nH]c3cc4c(=O)c5cc(OC)ccc5[nH]c4cc3c(=O)c2c1`, the GI50 is > 100 µM (inactive) in the assay with ACHN; > 100 µM (inactive) in the assay with CAKI-1; more than 100 µM in the assay on HCT-15; > 100 µM (inactive) in the assay with IGROV-1; > 100 µM (inactive) with K562; > 100 µM (inactive) in the assay with MDA-MB-435. Besides, the GI50 in the assay on MDA-N, in the assay on MOLT-4, with NCI-H23, with NCI-H522, in the assay with NCI/ADR-RES and with OVCAR-4 was > 100 µM (inactive) each time. The GI50 in the assay on RXF 393, with SK-MEL-28, in the assay on SK-MEL-2, in the assay with SK-MEL-5, in the assay on T47D and in the assay with U-251 was > 100 µM (inactive) throughout.
With `CC1CC/C(=C\c2ccc(Cl)cc2)C2OC(N)=C(C#N)C(c3ccc(Cl)cc3)=C12` (stereo not drawn), the GI50 in the assay on ACHN is 16.4 µM (inactive); in the assay with CAKI-1, 15.1 µM (inactive); with CCRF-CEM, 5.06 µM (inactive); in the assay on HCT-15, 11.1 µM; in the assay on IGROV-1, 12.3 µM (inactive); in the assay on K562, 9.66 µM (inactive). For the same molecule, the GI50 in the assay on LOX IMVI is 13 µM (inactive); with MDA-MB-435, 18.4 µM (inactive); in the assay with MDA-N, 14.7 µM (inactive); in the assay with MOLT-4 it was 4.37 µM (inactive); with NCI-H23 it was 13.6 µM (inactive); in the assay on NCI/ADR-RES, 11.6 µM (inactive). The GI50 was 14.6 µM (inactive) with RXF 393; 16.1 µM (inactive) with SK-MEL-28; 10.8 µM (inactive) in the assay with SK-MEL-2; 15.4 µM (inactive) with SK-MEL-5; 0.442 µM (active) with T47D; 15.2 µM (inactive) in the assay on U-251.
Take `OC1(c2ccccc2)CC2CCC(C1)N2CCc1ccccc1` (stereo not drawn): the GI50 was 34.7 µM (inactive) in the assay on ACHN; 53.2 µM (inactive) with CAKI-1; 34 µM (inactive) in the assay with CCRF-CEM; 89.9 µM in the assay with HCT-15; 86.3 µM (inactive) in the assay with IGROV-1; 45.5 µM (inactive) with K562. For the same molecule, the GI50 in the assay on LOX IMVI was 54.7 µM (inactive); in the assay on MDA-MB-435, 55.5 µM (inactive); in the assay with MDA-N, 56.8 µM (inactive); in the assay with MOLT-4, 29.7 µM (inactive); in the assay on NCI-H23, 53.6 µM (inactive); with NCI/ADR-RES it was > 100 µM (inactive). Besides, the GI50 is 72.8 µM (inactive) with OVCAR-4; > 100 µM (inactive) in the assay on RXF 393; 68.4 µM (inactive) in the assay on SK-MEL-28; > 100 µM (inactive) with SK-MEL-2; 13.7 µM (inactive) in the assay on SK-MEL-5; 45 µM (inactive) in the assay on T47D. Also, the GI50 in the assay with U-251 was > 100 µM (inactive).
